In patent US20230181624A1, “COMPOSITIONS AND METHODS FOR TREATMENT OF GASTROINTESTINAL BLEEDING” (Intact Therapeutics, Inc., priority 2020, published 2023):

Key:
[1] = tested on: mouse tail; assay: Mouse tail-snip assay (bleeding time); type: in vivo; details: amputated tail submerged in 1.5 ml of test formulation; compared with water
Method: A formulation of the invention was tested for the ability to prevent bleeding using a mouse tail-snip assay. A portion of tail one centimeter in length was amputated from an anesthetized mouse, and the remaining portion of the tail was immediately submerged in 1.5 ml of test formulation. Bleeding time was recorded as time from amputation to complete cessation of bleeding. The following formulations were tested: water; a solution of 5% tranexamic acid (TXA) in water; a gelled formulation containing Poloxamer 407 (TDP); and a gelled formulation containing 5% tranexamic acid and TDP. Each formulation was tested on seven animals total over the course of three experiments.
FIG. 8 is a graph showing bleeding time of mouse tails exposed to various formulations in a mouse tail-snip assay. *P<0.05, **P<0.01, ***P<0.001, ****P<0.0001, based on one-way ANOVA with the Tukey post-test.

[2] = Drug release from solidified Poloxamer 407 thermogel; type: physicochemical; details: within 3 hours
Source text: The properties of thermogels based on Poloxamer 407 were investigated. Poloxamer 407 has a molecular weight of 12,000 Da and a PEO/PPO ratio of 2:1 by weight, and it is Generally Recognized As Safe (GRAS) by the FDA.

Compound	bleeding time [1]	drug being delivered [2] [%]
NC[C@H]1CC[C@H](C(=O)O)CC1 [TXA, tranexamic acid]	decrease bleeding time	–
CCN(CC)CC(=O)Nc1c(C)cccc1C [lidocaine]	–	~60
